Consider one compound from US20220184020A1, “Polyphenols as Modulators of Platelet Function” (Northeastern University, priority 2019, published 2022).

The structures appear in SMILES notation.

This assay deals with platelets. As to the kind of experiment: Integrin αIIbβ3 activation (fibrinogen binding). The class given is cell-based, human. As to conditions: in response to U46619; RA pre-treatment 1 hour. As to the method: To validate the predictive power of the developed framework, direct experimental evidence of the predicted mechanistic role of Rosmarinic acid (RA) in VD was sought. […] Therefore, whether RA influenced platelet activation in vitro was evaluated. As platelets can be stimulated through different activation pathways, RA effects can, in principle, occur in any of them. To test these different possibilities, platelets were pretreated with RA and then activated with: 1) glycoprotein VI by collagen or collagen-related peptide (Collagen/CRPXL); 2) protease-activated receptors-1,4 by thrombin receptor activator peptide-6 (TRAP-6); 3) prostanoid thromboxane receptor by the thromboxane A2 analogue (U46619); and 4) P2Y1/12 receptor stimulation by adenosine diphosphate (ADP). When the network distance between each stimulant receptor and the RA-VD-platelet module (FIG. 11A) was compared, it was observed that the receptors for Collagen/CRPXL, TRAP-6, and U46619 are closer than the random expectation, while the receptor for ADP is more distant (FIG. 11B). It is expected that platelets would be most affected by RA when treated with stimulants whose receptors are most proximal to the RA-VD-platelet module, i.e. Collagen/CRPXL, TRAP-6, and U46619. […] Percent-positive cells were determined by gating on fluorescence intensity compared to unstimulated samples.

On to `O=C(/C=C/c1ccc(O)c(O)c1)O[C@H](Cc1ccc(O)c(O)c1)C(=O)O` [rosmarinic acid], for which the “integrin αIIbβ3 activation” value is “dampened”.
